Data set [1] is described as follows: CC50 assay (CellTiter-Glo) in Huh-7 HCV replicon cells. As to conditions: human, 3 days incubation, CellTiter-Glo readout. The data set is classed as cell-based, human. An outline of the steps: (§1)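 Cytotoxicity (CC50) measured by CellTiter-Glo and antiviral activity (EC50) by luciferase signal from lysed cells, both by luminescence. Replicon-bearing Huh-7 cells, 6000 per well, incubated 3 days at 37 °C with threefold-diluted compound (0.5% DMSO for DMSO-dissolved compounds).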

Data set [2] relates to HCV replicon in human hepatoma Huh-7 cell line. In words: Anti-HCV replicon assay (EC50, luciferase). The data set is classed as cell-based. As to conditions: Hepatitis C virus, Huh-7, 72 h. A digest of the protocol: as §1
Background: In antiviral work, replicon cells carry a viral genome segment that copies itself.

Usually CC50 stands for the concentration at which the toxic effect on the cells reaches its halfway point. In general, EC50 refers to the midpoint of the concentration-response curve. A high value points to lower potency in that assay. In data set [1], `C[C@H](O)C(=O)Nc1ccc(-c2ccc3nc(NCc4ccc(S(N)(=O)=O)cc4)nc(NCC(F)(F)F)c3n2)cc1Cl` [Example 208, N-{2-Chloro-4-[2-(4-sulfamoyl-benzylamino)-4-(2,2,2-trifluoro-ethylamino)-pyrido[3,2-d]pyrimidin-6-yl]-phenyl}-2-hydroxy-propionamide] yielded a CC50 at 3 days of 5 to 25 µM. The molecule also gave an EC50 in data set [2] of under 0.1 µM.
`CS(=O)(=O)N(CCO)c1cccc(-c2ccc3nc(NCc4ccc(F)cc4)nc(NCC(F)(F)F)c3n2)c1` [Example 276, N-{3-[2-(4-Fluoro-benzylamino)-4-(2,2,2-trifluoro-ethylamino)-pyrido[3,2-d]pyrimidin-6-yl]-phenyl}-N-(2-hydroxy-ethyl)-methanesulfonamide] registered a CC50 at 3 days in data set [1] of 5 to 25 µM. The molecule also had a 50% effective concentration (EC50) in data set [2] of under 0.1 µM.
Consider `NS(=O)(=O)c1ccc(CNc2nc(C3CC3)c3nc(-c4ccc(F)c(S(N)(=O)=O)c4)ccc3n2)cc1` [Example 289, 5-[4-Cyclopropyl-2-(4-sulfamoyl-benzylamino)-pyrido[3,2-d]pyrimidin-6-yl]-2-fluoro-benzenesulfonamide], for which the CC50 at 3 days in data set [1] is 5 to 25 µM. In data set [2], this molecule showed a 50% effective concentration (EC50) of under 0.1 µM.
Regarding `CC(C)(C)OC(=O)N1CCC(NS(=O)(=O)c2cc(-c3ccc4nc(NCc5ccc(S(N)(=O)=O)cc5)nc(NCC(F)(F)F)c4n3)ccc2Cl)CC1` [Example 201, 4-{2-Chloro-5-[2-(4-sulfamoyl-benzylamino)-4-(2,2,2-trifluoro-ethylamino)-pyrido[3,2-d]pyrimidin-6-yl]-benzenesulfonylamino}-piperidine-1-carboxylic acid tert-butyl ester], the CC50 at 3 days in data set [1] is 5 to 25 µM. Moreover, in data set [2], the EC50 was under 0.1 µM.
Molecule `CCOc1nc(NCc2ccc(S(N)(=O)=O)cc2)nc2ccc(-c3ccc(NC(=O)C(C)(C)N)cc3)nc12` [Example 135, 4-{[4-Ethoxy-6-(4-((2-amino-2-propyl)-carboxamido)-phenyl)-pyrido[3,2-d]pyrimidin-2-ylamino]-methyl}-benzenesulfonamide] had a CC50 at 3 days in data set [1] of under 5 µM. Moreover, the concentration for a half-maximal effect (EC50) in data set [2] is under 0.1 µM.
Taken in the same sequence, the figures for `NS(=O)(=O)c1ccc(CNc2nc(NCC(F)(F)F)c3nc(-c4ccnnc4)ccc3n2)cc1` [Example 203, 4-{[6-Pyridazin-4-yl-4-(2,2,2-trifluoro-ethylamino)-pyrido[3,2-d]pyrimidin-2-ylamino]-methyl}-benzenesulfonamide] were over 25 µM and under 0.1 µM.
The molecule `NS(=O)(=O)c1ccc(CNc2nc(NCC(F)(F)F)c3nc(-c4ccc(F)cc4)ccc3n2)c(F)c1` [Example 246, 3-Fluoro-4-{[6-(4-fluoro-phenyl)-4-(2,2,2-trifluoro-ethylamino)-pyrido[3,2-d]pyrimidin-2-ylamino]-methyl}-benzenesulfonamide] showed a CC50 at 3 days in data set [1] of 5 to 25 µM. In addition, the EC50 in data set [2] was under 0.1 µM.
Taken in the same sequence, the figures for `CCOc1nc(NCc2ccc(S(N)(=O)=O)cc2)nc2ccc(-c3ccc(NC(=O)C4(O)CC4)cc3)nc12` [Example 136, 4-{[4-Ethoxy-6-(4-((1-hydroxy-1-cyclopropyl)-carboxamido)-phenyl)-pyrido[3,2-d]pyrimidin-2-ylamino]-methyl}-benzenesulfonamide] were 5 to 25 µM and under 0.1 µM.
In data set [1], `CC(C)N1CCN(S(=O)(=O)c2cc(-c3ccc4nc(NCc5ccc(S(N)(=O)=O)cc5)nc(NCC(F)(F)F)c4n3)ccc2Cl)CC1` [Example 196, 4-{[6-[4-Chloro-3-(4-isopropyl-piperazine-1-sulfonyl)-phenyl]-4-(2,2,2-trifluoro-ethylamino)-pyrido[3,2-d]pyrimidin-2-ylamino]-methyl}-benzenesulfonamide] gave a CC50 at 3 days of under 5 µM. The molecule further yielded an EC50 in data set [2] of under 0.1 µM.
In turn, `COc1cc(-c2ccc3nc(NCc4ccc(S(N)(=O)=O)cc4)nc(NCC(F)(F)F)c3n2)ccn1` [Example 172, 4-{[6-(2-Methoxy-pyridin-4-yl)-4-(2,2,2-trifluoro-ethylamino)-pyrido[3,2-d]pyrimidin-2-ylamino]-methyl}-benzenesulfonamide] displayed a CC50 at 3 days in data set [1] of 5 to 25 µM. For the same molecule, in data set [2], the EC50 was under 0.1 µM.
The molecule `N[C@@H](CO)C(=O)Nc1ccc(-c2ccc3nc(NCc4ccc(S(N)(=O)=O)cc4)nc(NCC(F)(F)F)c3n2)cc1` [Example 156, (S)-4-{[4-(2,2,2-Trifluoroethyl)-amino-6-(4-((2-hydroxy-1-aminoethyl)-carboxamido)-phenyl)-pyrido[3,2-d]pyrimidin-2-ylamino]-methyl}-benzenesulfonamide] showed a CC50 at 3 days in data set [1] of under 5 µM. This molecule also had an EC50 in data set [2] of under 0.1 µM.
Regarding `N#CC1(NC(=O)c2ccc(-c3ccc4nc(NCc5ccc(S(N)(=O)=O)cc5)nc(NCC(F)(F)F)c4n3)cc2)CC1` [Example 159, 4-{[4-(2,2,2-Trifluoroethyl)-amino-6-(4-(N-(1-cyano-1-cyclopropyl)-carbamoyl)phenyl)-pyrido[3,2-d]pyrimidin-2-ylamino]-methyl}-benzenesulfonamide], the cytotoxic concentration (CC50) at 3 days in data set [1] was over 25 µM. The EC50 in data set [2] is under 0.1 µM.
In turn, `CC(C)N1CCN(S(=O)(=O)c2cc(-c3ccc4nc(NCc5ccc(S(N)(=O)=O)cc5)nc(NCC(F)(F)F)c4n3)ccc2F)CC1` [Example 204, 4-{[6-[4-Fluoro-3-(4-isopropyl-piperazine-1-sulfonyl)-phenyl]-4-(2,2,2-trifluoro-ethylamino)-pyrido[3,2-d]pyrimidin-2-ylamino]-methyl}-benzenesulfonamide] gave a CC50 at 3 days in data set [1] of under 5 µM. Further, the half-maximal effective concentration (EC50) in data set [2] was under 0.1 µM.
As to `NS(=O)(=O)c1ccc(CNc2nc(NCC(F)(F)F)c3nc(-c4ccc(F)c(S(=O)(=O)N[C@@H]5CCNC5)c4)ccc3n2)cc1` [Example 213, 2-Fluoro-N-pyrrolidin-3-yl-5-[2-(4-sulfamoyl-benzylamino)-4-(2,2,2-trifluoro-ethylamino)-pyrido[3,2-d]pyrimidin-6-yl]-benzenesulfonamide], the CC50 at 3 days in data set [1] was under 5 µM. In data set [2], the EC50 was under 0.1 µM.
In turn, `Fc1ccc(-c2ccc3nc(NCC(F)(F)F)nc(O[C@H]4CCOC4)c3n2)cc1` [Example 20, [6-(4-Fluoro-phenyl)-4-(tetrahydro-furan-3-yloxy)-pyrido[3,2-d]pyrimidin-2-yl]-(2,2,2-trifluoro-ethyl)-amine] came in with a CC50 at 3 days in data set [1] of over 25 µM. The EC50 in data set [2] was under 0.1 µM.
`CCOc1nc(NCc2ccc(F)cc2)nc2ccc(-c3cccc(NS(C)(=O)=O)c3)nc12` [Example 66, N-{3-[4-Ethoxy-2-(4-fluoro-benzylamino)-pyrido[3,2-d]pyrimidin-6-yl]-phenyl}-methanesulfonamide] displayed a CC50 at 3 days in data set [1] of under 5 µM. In data set [2], the 50% effective concentration (EC50) is under 0.1 µM.
`CN(CCS(C)(=O)=O)c1nc(NCc2ccc(F)cc2)nc2ccc(-c3ccc(NC(=O)C4(O)CC4)cc3)nc12` [Example 281, 1-Hydroxy-cyclopropanecarboxylic acid (4-{2-(4-fluoro-benzylamino)-4-[(2-methanesulfonyl-ethyl)-methyl-amino]-pyrido[3,2-d]pyrimidin-6-yl}-phenyl)-amide] yielded a CC50 at 3 days in data set [1] of 5 to 25 µM. Also, the EC50 in data set [2] was under 0.1 µM.
In data set [1], `CCOc1nc(NCC(F)(F)F)nc2ccc(-c3ccc(F)cc3)nc12` [Example 21, [4-Ethoxy-6-(4-fluoro-phenyl)-pyrido[3,2-d]pyrimidin-2-yl]-(2,2,2-trifluoro-ethyl)-amine] yielded a CC50 at 3 days of 5 to 25 µM. The concentration for a half-maximal effect (EC50) in data set [2] is under 0.1 µM.
As to `NC(=O)CCNc1nc(NCc2ccc(F)cc2)nc2ccc(-c3ccc(F)cc3)nc12` [Example 24, 3-[2-(4-Fluoro-benzylamino)-6-(4-fluoro-phenyl)-pyrido[3,2-d]pyrimidin-4-ylamino]-propionamide], the CC50 at 3 days in data set [1] lay in the range of 5 to 25 µM. This molecule yielded an EC50 in data set [2] of under 0.1 µM.
Take `CCOc1nc(NCc2ccc(F)cc2)nc2ccc(-c3ccc(NC(=O)C4CC4)nc3)nc12` [Example 79, Cyclopropanecarboxylic acid {5-[4-ethoxy-2-(4-fluoro-benzylamino)-pyrido[3,2-d]pyrimidin-6-yl]-pyridin-2-yl}-amide]: the 50% cytotoxic concentration (CC50) at 3 days in data set [1] lay in the range of 5 to 25 µM. The molecule also displayed an EC50 in data set [2] of under 0.1 µM.
As for `CCOc1nc(NCc2ccc(S(N)(=O)=O)cc2)nc2ccc(-c3ccc(F)c(Cl)c3)nc12` [Example 127, 4-{[4-Ethoxy-6-(3-chloro-4-fluorophenyl)-pyrido[3,2-d]pyrimidin-2-ylamino]-methyl}-benzenesulfonamide], the CC50 at 3 days in data set [1] is under 5 µM. This molecule showed an EC50 in data set [2] of under 0.1 µM.
In turn, `CCOc1nc(NCc2ccon2)nc2ccc(-c3ccc(F)cc3)nc12` [Example 116, [4-Ethoxy-6-(4-fluoro-phenyl)-pyrido[3,2-d]pyrimidin-2-yl]-isoxazol-3-ylmethyl-amine] yielded a CC50 at 3 days in data set [1] of over 25 µM. This molecule displayed an EC50 in data set [2] of under 0.1 µM.
Regarding `CCOc1nc(NCc2ccc(S(N)(=O)=O)cc2)nc2ccc(-c3ccc(NC(=O)N4CCCC4)cc3)nc12` [Example 129, 4-{[4-Ethoxy-6-(4-(pyrrolidine-1-carboxamido)-phenyl)-pyrido[3,2-d]pyrimidin-2-ylamino]-methyl}-benzenesulfonamide], in data set [1], the half-maximal cytotoxic concentration (CC50) at 3 days is over 25 µM. In data set [2], this molecule came in with an EC50 of under 0.1 µM.
The molecule `CC(C)Nc1nc(NCCN2CCOCC2)nc2ccc(-c3ccc(F)cc3)nc12` [Example 56, 6-(4-Fluoro-phenyl)-N4-isopropyl-N2-(2-morpholin-4-yl-ethyl)-pyrido[3,2-d]pyrimidine-2,4-diamine] yielded a CC50 at 3 days in data set [1] of 5 to 25 µM. This molecule displayed an EC50 in data set [2] of 0.25 to 2 µM.
The molecule `COCCOc1nc(NCc2ccc(S(N)(=O)=O)cc2)nc2ccc(-c3ccc(F)c(Cl)c3)nc12` [Example 236, 4-{[6-(3-Chloro-4-fluoro-phenyl)-4-(2-methoxy-ethoxy)-pyrido[3,2-d]pyrimidin-2-ylamino]-methyl}-benzenesulfonamide] showed a CC50 at 3 days in data set [1] of 5 to 25 µM. In data set [2], this molecule displayed an EC50 of under 0.1 µM.
Taken in the same sequence, the figures for `CCOc1nc(NCc2ccc(F)cc2)nc2ccc(-c3ccc(C(=O)NC(C)(C)CO)cc3)nc12` [Example 94, 4-[4-Ethoxy-2-(4-fluoro-benzylamino)-pyrido[3,2-d]pyrimidin-6-yl]-N-(2-hydroxy-1,1-dimethyl-ethyl)-benzamide] were 5 to 25 µM and under 0.1 µM.
